From patent US20260207551A1, “PHOSPHOGLICERATE DEHYDROGENASE INHIBITORS FOR THE TREATMENT OF FIBROSIS” (CHIESI FARMACEUTICI S.P.A., priority 2022, published 2026)

What was measured:
[1] = test system: bleomycin-induced pulmonary fibrosis; experiment: Bleomycin-induced pulmonary fibrosis in male mice (Example 6); format: in vivo, Male C57BL6/J mice
Experimental: The effect of Compound 19a was evaluated in a murine model (C57BL/6J mouse strain) in which fibrosis was induced by a double oropharyngeal (OA) instillation of bleomycin. The Compound 19a was administered under therapeutic regimen for 14 days, starting the treatments at day 7 from the first instillation of Bleomycin OA up to the day 21, considered the endpoint for this model.
All mice were maintained under pathogen-free conditions and had free access to food and water.
Lung injury was induced by double OA instillation of bleomycin hydrochloride (BLM, BAXTER, Deerfield, IL, USA) at day 0 and day 4 at the dose of 0.03 U/mouse in […] of saline solution (NaCl 0.9%). Control animals received double OA instillation of […] of saline solution.
The Compound 19a was orally administered twice daily at the three doses of 3, 30 and 100 mg/Kg 10 mL/Kg, using as vehicle for dissolution the 0.5% Tween 80, 0.5% Methylcellulose in H2O.
On day 21, the respiratory system mechanics were measured using the FlexiVent System (SCIREQ Inc., Montreal Qc, Canada) (Vanoirbeek et al., 2010).
Briefly, mice were anesthetized by intraperitoneal injection of ketamine (Anesketin®, Dechra Inc., Handelsweg, NL) and xylazine (Xilagesic®, Calier Inc., Barcelona, ES) solution (100 mg/Kg and 10 mg/Kg, respectively). Once anesthesia was achieved, to analyze forced vital capacity (FVC), anesthetized mice were tracheotomized using an 18-gauge metal cannula, connected via an endotracheal cannula to the FlexiVent and ventilated at a respiratory rate of 150 breaths/min and tidal volume of 10 mL/Kg against a positive end-expiratory pressure of 3 cm H2O to achieve a mean lung volume close to that during spontaneous breathing. To prevent spontaneous breathing mice also received pancuronium bromide at 1 mg/Kg intraperitoneally. FlexiVent software version 8.1 was used to perform the perturbations.
Immediately after the in-life evaluation, plasma and bronchoalveolar lavage fluid (BALF) samples were collected.
First, blood was collected by cardiac puncture, and plasma was obtained after centrifugation of blood at 2000×g and 4° C. for 10 minutes.
Subsequently, the lungs were gently rinsed three times using a tracheal cannula with 0.6 mL of clear BAL solution. The obtained BALF was centrifuged at 1000×g and 4° C. for 10 minutes. The cell-free supernatant was used for biomarkers quantitative determination.
The following biomarkers were determined in BALF and plasma samples by commercially available ELISA kits: Collagen I (evaluated in BALF), an index of collagen accumulation; matrix metallopeptidase 7 (MMP-7, evaluated in BALF), indicator of aberrant fibrogenesis and ECM remodeling and surfactant protein D (SP-D, evaluated in PLASMA), marker of alveolar epithelial cell damage and dysfunction.
Lastly, the entire lungs were resected, fixed with formalin and embedded in paraffin. Sections were stained with Masson's trichrome to assess the grade and severity of fibrosis and collagen deposition.

[2] = test system: synthesis of 13C3-serine; experiment: PK/PD model: in vivo [13C6] glucose tracing, inhibition of 13C3-serine synthesis; design: species or system mouse male (C57BL/6J); details: 1 h; for decrease of brain serine concentration: not statistically significant
Experimental: As PHGDH catalyzes the rate-limiting step of glucose-derived serine synthesis, a pharmacokinetic/pharmacodynamic (PK/PD) experiment aimed to assess the inhibition of the synthesis of ^13C3-serine after oral administration of ^13C6-glucose was performed in mouse male (C57BL/6J).
Animals were fasted overnight before treatment. Following 0.5 h from administration of either Compound 19 at dose of 300 mg/kg or vehicle (0.5% Tween 80, 0.5% Methylcellulose in H2O), ^13C6-glucose was administered by oral gavage (2 g/kg, Merck Life Science Srl). Blood, lung, and brain samples were collected at 1 h, 6.5 h and 24.5 h after treatment with Compound 19 or vehicle.
The tissue concentration of ^13C3-serine was determined by a liquid chromatography-tandem mass spectrometry (LC/MS/MS) assay. GraphPad Prism (version 8.1.2) was used for drawing graphs and for statistical analysis. Plasma or tissue homogenate samples (tissues were homogenized with a water/acetonitrile 50/50 mixture) were extracted with 3 volumes of acetonitrile. Supernanatant was injected into HPLC system (Agilent 1260 Quaternary Pump equipped with an Agilent 1200 High Performance Autosampler SL; Agilent), using a Kinetex EVO C18 analytical column (100 A, 50×2.1 mm, 2.6 μm; Phenomenex) for the analysis of Compound 19 or an InfinityLab Poroshell 120 Hilic-Z (50×2.1 mm 2.7 μm; Agilent) for the analysis of ^13C3-serine. The mobile phases consisted of 0.1% formic acid in water (solvent A) and 0.1% formic acid in acetonitrile (solvent B); chromatographic separation was performed with gradient elution method (see conditions below): • Compound 19 (0.0-0.5 min, 10% B; 0.5-3.0 min, gradient to 90% B; 3.0-5.0 min. 90% B; 5.0-6.0 min, gradient to 10% B; 6.0-10.0 min, 10% B—flow rate: 0.4 mL/min). • S^13C3-serine (0.0-0.5 min, 95% B; 0.5-4.0 min, gradient to 60% B; 4.0-5.0 min, 60% B; 5.0-6.0 min, gradient to 95% B; 6.0-10.0 min, 95% B—flow rate: 0.4 mL/min).
Mass spectrometric analysis was performed on a linear ion trap triple quadrupole mass spectrometer (4000 Q TRAP; AB SCIEX) equipped with a turbo spray ion source; mass spectrometer was operated in positive ion mode and quantification was achieved by multiple reaction monitoring (MRM) mode. Peak integration was performed using Analyst (version 1.6.2.). GraphPad Prism (version 8.1.2) was used for drawing graphs and for statistical analysis.
After 0.5 h from administration of Compound 19a at dose of 3, 10, 30, 100 and 300 mg/kg po, Compound 19 at dose of 300 mg/kg po or vehicle po (0.5% Tween 80, 0.5% Methylcellulose in H2O), mice received ^13C6-glucose by oral gavage (2 g/kg, Merck Life Science Srl). […] Blood was withdrawn by cardiac puncture and collected in heparin tubes.

[3] = test system: Collagen I; experiment: Fibroblast to myofibroblast transition (FMT) in vitro assay: Collagen I detection; format: cell-based; details: Homo sapiens, NHLF, 72 h, read-out: Collagen-I pIC50 (converted)
[4] = test system: αSMA; experiment: Phenotypic assay: high content aSMA staining in NHLF cells; format: cell-based, Human; details: NHLF, 72 h incubation
Experimental: NHLF cells (Lonza #CC2512) were seeded as 2000 cells/well in 384-well plates in MEM medium w/o serine and glycine (Sigma #M2279)+1% pen/strep+5 mM L-glutamine +10% FBS and incubated overnight at 37° C., 5% CO2.
The next day, cells were washed with PBS and starvation MEM medium w/o serine and glycine (0% FBS) was added and cells were incubated overnight at 37° C., 5% CO2. The day after, cells were pre-incubated with compounds or vehicle (0.3% DMSO) for 1 h. Compounds were tested at 9 consecutive 3-fold dilutions starting from 30 μM. Each compound was tested in duplicate. Cells were further incubated for 72 h at 37° C., 5% CO2, 95% humidity. After 72 h of incubation, αSMA expression was quantified using immunostaining: • Fixation in 4% paraformaldehyde, • Blocking with 3% BSA, 2% FBS, 0.2% Triton-X in PBS, • Primary ab. anti-αSMA (AbCam #ab7817) diluted 500× in blocking buffer • Anti-mouse secondary ab. AF488 (ThermoFisher #A11029) • % of αSMA positive cells was determined by High Content Imaging (Molecular Device), data analysis was performed using MetaXpress software (Molecular Devices) and % of αSMA positive was further used to calculate % of inhibition for tested compounds. Total cell number was determined by Hoechst staining and % of viability over TGFβ stimulated controls was calculated.

[5] = Compound 19a 100 mg/Kg bid, Nintedanib esylate 50 mg/Kg bid

CC(C)C(C(=O)O)c1ccc(C2(NC(=O)c3cc4c(Cl)c(Cl)ccc4n3C)CCOC2)cc1 (racemic) [Compound 19a, Diasteroisomer 2 of (±)-2-(4-(3-(4,5-Dichloro-1-methyl-1H-indole-2-carboxamido)tetrahydro-furan-3-yl)phenyl)-3-methylbutanoic acid]
fibrotic tissue quantification by automated analysis (FIG. 19B) ([1]; 100 mg/Kg): effect comparable to Nintedanib
reduction of Collagen I in BALF [1, 5]: 52%
reduction of MMP-7 in BALF [1, 5]: > 100%
reduction of SP-D levels in plasma [1, 5]: 74%
improvement of FVC decline ([1]; Compound 19a 100 mg/kg bid, Nintedanib esylate 50 mg/Kg bid, vs BLM/vehicle): 77%
reduction of Ashcroft score ([1]; day 21, dose not stated): 56%
decrease of brain serine concentration ([2]; 100 mg/kg po): 12%
decrease of brain serine concentration ([2]; 300 mg/kg po): 30%
ED80 (inhibition of labelled serine) ([2]; plasma and lung, both tissues, po, estimated): around 30 mg/kg
IC50 [3]: 126 nM
aSMA pIC50 [4]: 6.6
